Measured values published in patent publication US5079260A, “Method for treating inflammation and compounds and compositions suitable for use therein” (Nova Pharmaceutical Corporation, priority 1990, dated 1992).

Key:
[1] = system: Reverse Passive Artus Reaction; test: Reverse Passive Artus Reaction (I), Table 6; format: in vivo, Male CD rats; details: inhibition of blueing
Source text: (§1) Such inflammatory agents typically include tetradecanoylphorbolacetate, arachidonic acid, xylene, capsaicin, oxazolone, carrageenan and the like. The reverse passive Arthus test offers another measure of the compound's utility in preventing an inflammatory response (Chang et al, Eur. J. Pharm. 69:155-164 (1981)). Test compounds are typically administered intraperitoneally or topically. For intraperitoneal administration, the test compound can be given in dimethyl sulfoxide or in 0.5% methylcellulose 30 minutes prior to administration of the irritant. For topical administration, the test compound can be dissolved in, for example, acetone, ethanol or dimethyl sulfoxide and applied about 15 minutes prior to application of the irritant. Results can be expressed as the percent decrease in swelling in the compound-treated animals as compared to control animals that receive only the irritant.
Reverse Passive Artus Reaction (I)
Male CD rats weighing between 200 and 250 g were used. Test compounds (compounds of Formula I where X is oxygen, R3, R4, A and B are hydrogen and Q is as indicated in Table 6) were dissolved in dimethyl sulfoxide and 200 μl of this solution (100 mg/kg) were injected intraperitoneally one hour before administration of the antigen. The animals were anesthetized inhalationally with isoflurane and then were injected through the penile vein with 1 ml of a solution of 2.5 mg of Evan's blue dye and 5.0 mg of human serum albumin in 1 ml of saline. This treatment was followed immediately by intracutaneous injections of 0.03 ml of anti-human albumin diluted to contain 3.65 mg of antibody at 3 sites along the midline back. Anesthesia was terminated and after three hours the animals were sacrificed. The skin was removed and the blue stained areas cut out. […] The tube contents were agitated and centrifuged, and the absorbance of the supernatant liquid was measured at 620 nm. The data were calculated as inhibition of blueing by test compound compared to control animals receiving only antigen and antibody.

[2] = system: Reverse Passive Artus Reaction; test: Reverse Passive Artus Reaction (II), Table 11; format: in vivo, Male CD rats; details: inhibition of blueing, i.p.
Experimental: Reverse Passive Artus Reaction (II) Male CD rats weighing between 200 and 250 g were used. […] The animals were anesthetized inhalationally with isoflurane and then injected through the penile vein with 1 mL of a solution of 2.5 mg of Evan's blue dye and 5.0 mg of human serum albumin in 1 mL of saline. This treatment was followed immediately by intracutaneous injections of 0.03 mL of anti-human albumin diluted to contain 3.65 mg of antibody at 3 sites along the midline back. Anesthesia was terminated and after three hours, the animals were sacrificed. The skin was removed and the blue stained areas cut out. The skin patches were soaked overnight in stoppered tubes containing 1 mL of 1 N potassium hydroxide at 37° C. Then 9 mL of a mixture of five parts of a 0.6 N phosphoric acid and thirteen parts of acetone were added to the tubes. The tube contents were agitated and centrifuged, and the absorbance measured at 620 nm. The data were calculated as inhibition of blueing by test compound compared to control animals receiving only antigen and antibody.

[3] = system: Ear Edema Caused by Xylene; test: Inhibition of Ear Edema Caused by Xylene (II), Table 9; format: in vivo, CF-1 mice; details: i.p., 2 h
How it was run: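 CF-1 mice (25-30 g, six per group) received compound i.p. in DMSO or 0.5% methylcellulose 30 min before xylene was applied to both ear surfaces. Ear thickness was measured by micrometer 2 h later. Values are percent inhibition of the increase in ear thickness versus irritant-only controls.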

[4] = system: Ear Edema Caused by Arachidonic Acid; test: Inhibition of Ear Edema Caused by Arachidonic Acid (II), Table 8; format: in vivo, CF-1 mice; details: i.p., sixty minutes
How it was run: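 CF-1 mice (25-30 g, six/group) dosed intraperitoneally with compound in DMSO or 0.5% methylcellulose 30 min before topical arachidonic acid (100 mg/mL in ethanol, both ear surfaces).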

[5] = system: Ear Edema Caused By Tetradecanoylphorbol Acetate; test: Inhibition of Ear Edema Caused by Tetradecanoylphorbol Acetate (II), Table 7; format: in vivo, CF-1 Mice; details: i.p., 3 h
[6] = system: Ear Edema Caused by Oxazolone; test: Inhibition of Ear Edema Caused by Oxazolone (I), Table 5; format: in vivo, CF-1 Mice; details: 24 h
Source text: as §1
Inhibition of Ear Edema Caused by Oxazolone (I)
CF-1 Mice, 25-30 g body weight, six animals per group, were used. The mice were sensitized to the irritant two weeks prior to the test by dribbling 100 μl of a 3% solution of oxazolone in acetone onto the abdominal skin of the animal. Test compounds (compounds of Formula I where X is oxygen, R3, R4, A and B are hydrogen and Q is as indicated in Table 5) were administered intraperitoneally as follows. The test compound was dissolved in DMSO or 0.5% methylcellulose and 100 μl (100 mg/kg) was injected 30 minutes prior to irritant. The irritant, 3% oxazolone in acetone, was added to the surface of the ear, 5 μl added to the upper surface and 5 μl to the lower surface. After twenty four hours, the thickness of the ear was measured to 0.01 mm by a micrometer with loose drag positioned at the lateral-most edge of the mid-point of the pinna. Data were calculated as the inhibition by the test compound of increased ear thickness compared to control animals receiving only the irritant.

[7] = system: Ear Edema Caused by Tetradecanoylphorbolacetate; test: Inhibition of Ear Edema Caused by Tetradecanoylphorbolacetate (I), Table 1; format: in vivo, CF-1 Mice; details: i.p.
Source text: as §1
Inhibition of Ear Edema Caused by Tetradecanoylphorbolacetate (I)
CF-1 Mice, 25-30 g body weight, six animals per group, were used. Test compounds (compounds of Formula I where X is oxygen, R3, R4, A and B are hydrogen and Q is as indicated in Table 1) were administered intraperitoneally (100 mg/kg) or topically as follows. For intraperitoneal administration, the test compound was dissolved in dimethyl sulfoxide or 0.5% methylcellulose and 100 μl was injected 30 minutes prior to irritant (100 mg/kg, i.p.). For topical administration, the test compound was dissolved in either acetone, ethanol or dimethyl sulfoxide and 5 μl (100 μg) applied to the upper surface (1 cm^2) of the ear and an additional 5 μl (100 μg) applied to the lower surface (1 cm^2) of the ear fifteen minutes prior to application of the irritant. A solution of the irritant, tetradecanoylphorbolacetate, 200 μg/ml, was added to the surface of the ear, 5 μl added to the upper surface and 5 μl to the lower surface. After three hours, the thickness of the ear was measured to 0.01 mm by a micrometer with loose drag positioned at the lateral-most edge of the mid-point of the pinna. Data were calculated as the inhibition by the test compound of increased ear thickness compared to control animals receiving only the irritant.

[8] = system: Ear Edema Caused by Xylene; test: Inhibition of Ear Edema Caused by Xylene (I), Table 3; format: in vivo, CF-1 Mice; details: 2 h; for % Inhibition Intraperitoneal: i.p., 100 mg/kg, 30 min before irritant
Source text: as §1
Inhibition of Ear Edema Caused by Xylene (I)
CF-1 Mice, 25-30 g body weight, six animals per group, were used. Test compounds (compounds of Formula I where X is oxygen, R3, R4, A and B are hydrogen and Q is as indicated in Table 3) were administered intraperitoneally (100 mg/kg) or topically as follows. For intraperitoneal administration, the test compound was dissolved in DMSO or 0.5% methylcellulose and 100 μl was injected 30 minutes prior to irritant. For topical administration, test compound was dissolved in either acetone, ethanol or dimethyl sulfoxide and 5 μl (10 μg) applied to the upper surface (1 cm^2) of the ear and an additional 5 μl (10 μg) applied to the lower surface (1 cm^2) of the ear fifteen minutes prior to application of the irritant. The irritant, xylene, was added to the surface of the ear, 20 μl added to the upper surface and 20 μl to the lower surface. After two hours, the thickness of the ear was measured to 0.01 mm by a micrometer with loose drag positioned at the lateral-most edge of the mid-point of the pinna. Data were calculated as the inhibition by the test compound of increased ear thickness compared to that of control animals receiving only the irritant.

[9] = system: Ear Edema Caused by Arachidonic Acid; test: Inhibition of Ear Edema Caused by Arachidonic Acid (I), Table 2; format: in vivo, CF-1 Mice; details: i.p., 100 mg/kg; ear thickness at sixty minutes
Source text: as §1
Inhibition of Ear Edema Caused by Arachidonic Acid (I)
CF-1 Mice, 25-30 g body weight, six animals per group, were used. Test compounds (compounds of Formula I where X is oxygen, R3, R4, A and B are hydrogen and Q is as indicated in Table 2) were administered intraperitoneally (100 mg/kg) as follows. For intraperitoneal administration, test compound was dissolved in DMSO or 0.5% methylcellulose and 100 μl was injected 30 minutes prior to i.p. administration of 100 mg/kg of arachidonic acid. A solution of the irritant, arachidonic acid, 100 mg/ml in ethanol, was added to the surface of the ear, 5 μl added to the upper surface and 5 μl to the lower surface. After sixty minutes, the thickness of the ear was measured to 0.01 mm by a micrometer with loose drag positioned at the lateral-most edge of the mid-point of the pinna. Data were calculated as the percent inhibition by the test compound of increased ear thickness compared to control animals receiving only the irritant.

[10] = system: Ear Edema Caused by Oxazolone; test: Inhibition of Ear Edema Caused by Oxazolone (II), Table 10; format: in vivo, CF-1 mice; details: i.p., 24 h
[11] = system: Adjuvant Induced Fibrinogen; test: Adjuvant Arthritis: Inhibition of Adjuvant Induced Fibrinogen, Table 12; format: in vivo, Male Sprague Dawley rats; details: i.p., 100 mg/kg, day 3
[12] = 100 mg/kg, 30 min before irritant, ear thickness at 3 h

Structure (SMILES) | % Inhibition ([3]; 10 mg/kg) [%] | % Inhibition Intraperitoneal ([4]; 10 mg/kg) [%] | % Inhibition Intraperitoneal ([5]; 10 mg/kg) [%] | % Inhibition Intraperitoneal [8] [%] | % Inhibition Intraperitoneal [9] [%] | % Inhibition Intraperitoneal [7, 12] [%] | % Inhibition Intraperitoneal ([2]; 100 mg/kg) [%] | % Inhibition ([3]; 30 mg/kg) [%] | % Inhibition ([3]; 100 mg/kg) [%] | % Inhibition Intraperitoneal ([4]; 30 mg/kg) [%] | % Inhibition Intraperitoneal ([4]; 100 mg/kg) [%] | % Inhibition Intraperitoneal ([10]; 10 mg/kg) [%] | % Inhibition Intraperitoneal ([10]; 30 mg/kg) [%] | % Inhibition Intraperitoneal ([10]; 100 mg/kg) [%] | % Inhibition Intraperitoneal ([5]; 30 mg/kg) [%] | % Inhibition Intraperitoneal ([5]; 100 mg/kg) [%] | % Inhibition [11] [%] | further results
COc1cc2c(c(OC)c1OC)-c1ccc(OC)c(=O)cc1[C@@H](NC(C)=O)CC2 [Colchicine, reference compound] | – | – | – | – | – | – | – | – | – | – | – | – | – | – | – | – | – | % Inhibition Intraperitoneal ([1]; Reference Standard 1 mg/kg): 64%
C[C@@H]1C[C@H]2[C@@H]3CCC4=CC(=O)C=C[C@]4(C)[C@@]3(F)[C@@H](O)C[C@]2(C)[C@@]1(O)C(=O)CO [Dexamethasone, reference compound] | 34 | 12 | 50 | – | – | – | – | – | – | – | – | – | – | – | – | – | – | % Inhibition Intraperitoneal ([2]; 10 mg/kg): 4%; % Inhibition Intraperitoneal ([6]; Reference Standard at 10 mg/kg): 48%; % Inhibition Intraperitoneal ([7]; Reference Standard, 10 mg/kg, 3 h): 50%
O=C(N[C@@H](Cc1ccccc1)C(=O)O)OCC1c2ccccc2-c2ccccc21 [L-Phenylalanine, N-[(9H-Fluoren-9-ylmethoxy)carbonyl]-L-phenylalanine] | – | – | – | 49 | 70 | 78 | – | – | – | – | – | – | – | – | – | – | – | % Inhibition, topical ([8]; topical, 10 μg upper + 10 μg lower ear surface, 15 min before irritant): 50%; % Inhibition Intraperitoneal ([1]; i.p., 100 mg/kg, one hour before antigen): 47%; % Inhibition Intraperitoneal ([6]; i.p., 100 mg/kg, 30 min before irritant, sensitized mice): 62%
CC(C)C[C@H](NC(=O)OCC1c2ccccc2-c2cc3ccccc3cc21)C(=O)O (stereo partly drawn) [NPC 15510, N-[9H-(2,3-Benzofluoren-9-ylmethoxy)carbonyl]-L-leucine] | 40 | -24 | 48 | – | – | – | 50 | 40 | 49 | 69 | 67 | -7 | 3 | 101 | 70 | 70 | 35 | –
CC(C)C[C@H](NC(=O)OCC1c2ccccc2-c2ccccc21)C(N)=O [NPC 15528, N-[(9H-Fluoren-9-ylmethoxy)carbonyl]-L-leucine Amide] | 20 | 31 | 61 | – | – | – | 0 | 27 | 39 | 32 | 35 | 41 | 25 | 46 | 64 | 75 | 0 | –
CN1C(C(=O)Nc2ccccn2)=C(O)c2ccccc2S1(=O)=O [Piroxicam, reference compound] | 53 | 56 | 7 | 74 | 86 | 40 | – | 49 | 74 | 77 | 86 | – | – | – | 14 | 40 | – | –
